# “Also recorded” adds a separate entry of the source.
# Tests used:
# [1] = background art; cited from earlier work
# [2] = test system: cellular immunity; details: background art; cited from earlier work
# [3] = test system: sheep erythrocytes; assay: Hemolytic test for active saponins (Example 6); assay type: cell-based; details: 30 minutes at room temperature, solutions 3.125 to 200 µg/ml in PBS, E and F judged at a final concentration of 200 µg/ml
# Procedure: It has been known that saponins generally have the hemolytic activity. Thus, the inventive active saponins were tested for the hemolytic activity as follows. The sheep erythrocytes were washed 3 times with phosphate buffered saline (PBS), and then diluted 2.5 times with the same buffer for the subsequent experiment. Aliquots (100 µl ) of solutions of onjisaponins A, E, F, and G (200, 100, 50, 25, 6.25, 3.125 µg/ml-PBS solution) were added to V-shaped wells of a 96-well micro-plate, and 25 µl of sheep erythrocyte suspension was added to each well. The plate was allowed to stand still at room temperature for 30 minutes. Then, the samples were centrifuged at 1000 rpm for 5 minutes. An aliquot (50 µl) of the resulting supernatant was transferred to a flat-bottomed well of a plate and the absorbance thereof was measured at 490 nm in a micro-plate reader (Model 450, BioRad Co.). The hemolytic activity of test compound was evaluated based on the increase in absorbance at 490 nm, which results from the release of hemoglobin from sheep erythrocytes.
# [4] = test system: influenza HA vaccine (A/PR/8/34 strain); set-up: species or system BALB/c mice; details: mouse, in vivo
# [5] = test system: pertussis-diphtheria-tetanus combined vaccine; set-up: species or system BALB/c mice; details: mouse, in vivo
# [6] = test system: pertussis-diphtheria-tetanus combined vaccine; set-up: species or system BALB/c mice; details: mouse, in vivo; remark: listed apart in the source
# [7] = test system: influenza HA vaccine (A/Beijing/262/95 strain); set-up: species or system BALB/c mice; details: mouse, in vivo
# [8] = test system: influenza HA vaccine (A/Beijing/262/95 strain); assay type: in vivo, BALB/c mice
substance,measurement,setting,value
QS-21,solubility,[1],too low
same,induction of cellular immunity,[2],strongly induces the cellular immunity
onjisaponin A,"hemolytic activity (release of hemoglobin, absorbance at 490 nm)",[3],not acceptable; also recorded: hemolysis clearly occurred
same,anti-HA-IgA and IgG antibody titers in the nasal irrigation liquid compared with the group given vaccine in combination with CTB,[4],comparable
same,anti-HA-IgA antibody titer in the nasal irrigation liquid,[4],increased to the highest level
same,anti-HA-IgG antibody titer in the nasal irrigation liquid,[4],increased to the highest level
same,titer of anti-DT-IgG antibody in the serum,[5],increased to highest levels
same,titer of anti-PT-IgG antibody in the serum,[5],increased to highest levels
same,titer of anti-TT-IgG antibody in the serum,[5],increased to highest levels
same,"titers of anti-PT-IgG, anti-DT-IgG and anti-TT-IgG antibodies in the serum compared with the group given vaccine and CTB",[5],comparable
same,titer of anti-DT-IgA antibody in the nasal irrigation liquid,[6],increased to highest levels
same,titer of anti-PT-IgA antibody in the nasal irrigation liquid,[6],increased to highest levels
same,titer of anti-TT-IgA antibody in the nasal irrigation liquid,[6],increased to highest levels
same,"titers of anti-PT-IgA, anti-DT-IgA and anti-TT-IgA antibodies in the nasal irrigation liquid compared with the group given vaccine and CTB",[6],comparable
onjisaponin E,"hemolytic activity (release of hemoglobin, absorbance at 490 nm)",[3],substantially no hemolytic activity; also recorded: low hemolytic activity; also recorded: hardly recognized
same,anti-HA-IgA antibody titer in the nasal irrigation liquid,[4],increased only the production of anti-HA-IgA to a statistically significant level
same,anti-HA-IgG antibody titer in the nasal irrigation liquid,[4],increased only the production of anti-HA-IgA
onjisaponin F,"hemolytic activity (release of hemoglobin, absorbance at 490 nm)",[3],substantially no hemolytic activity; also recorded: low hemolytic activity; also recorded: hardly recognized
same,anti-HA-IgA antibody titer in the nasal irrigation liquid,[4],increased the production
same,anti-HA-IgG antibody titer in the nasal irrigation liquid,[4],increased the production
same,HI antibody titer in the serum compared with HA vaccine alone,[7],significantly increased
same,adjuvant activity (serum HI antibody titer) compared with the same amount of CTB,[7],slightly weaker
same,titer of anti-DT-IgG antibody in the serum,[5],also elevated
same,titer of anti-PT-IgG antibody in the serum,[5],also elevated
same,titer of anti-TT-IgG antibody in the serum,[5],also elevated
same,adjuvant activity of enhancing the titer of anti-HA-IgA antibody compared with the same amount of CTB,"[8]; mouse, in vivo",lower
same,anti-HA-IgA antibody titer in the nasal irrigation liquid,"[8]; secondary response, […]",significantly increased
same,anti-HA-IgG antibody titer in the nasal irrigation liquid,"[8]; secondary response, […]",significantly increased
same,titer of anti-DT-IgA antibody in the nasal irrigation liquid,[6],increased to highest levels
same,titer of anti-PT-IgA antibody in the nasal irrigation liquid,[6],increased to highest levels
same,titer of anti-TT-IgA antibody in the nasal irrigation liquid,[6],increased to highest levels
same,"titers of anti-PT-IgA, anti-DT-IgA and anti-TT-IgA antibodies in the nasal irrigation liquid compared with the group given vaccine and CTB",[6],comparable
onjisaponin G,"hemolytic activity (release of hemoglobin, absorbance at 490 nm)",[3],low hemolytic activity; also recorded: moderate degree of hemolysis
same,anti-HA-IgA antibody titer in the nasal irrigation liquid,[4],increased only the production of anti-HA-IgA to a statistically significant level
same,anti-HA-IgG antibody titer in the nasal irrigation liquid,[4],increased only the production of anti-HA-IgA
same,titer of anti-DT-IgG antibody in the serum,[5],increased only anti-TT-IgG antibody titer
same,titer of anti-PT-IgG antibody in the serum,[5],increased only anti-TT-IgG antibody titer
same,titer of anti-TT-IgG antibody in the serum,[5],increased only anti-TT-IgG antibody titer to a statistically significant level
same,titer of anti-DT-IgA antibody in the nasal irrigation liquid,[6],also elevated
same,titer of anti-TT-IgA antibody in the nasal irrigation liquid,[6],also elevated

# From EP1121937A1, “VACCINE PR[…]” (THE KITASATO INSTITUTE, priority 1998, dated 2000)
